Results from US5707966A, “Antithrombotic agents” (Eli Lilly and Company, priority 1995, dated 1998).
Where a name gives a salt, the structure may show the parent alone. Read-outs that look alike come from different tables or passages of the source.

Tests used:
Assay type in all cases: biochemical
[1] = biological target: T1, factor Xa (Homo sapiens, UniProt P00742); assay: Kass with factor Xa, chromogenic substrate; conditions: substrate N-Benzoyl-Ile-Glu-Gly-Arg-p-nitroanilide
T1 construct: Human factors X, Xa, IXa, XIa, and XIIa are purchased; purchased Enzyme Research Laboratories, South Bend, Ind
Description: (§1) By substantially following the procedures described above for human thrombin, and using other human blood coagulation system serine proteases and proteases of the fibrinolytic system with the appropriate chromogenic substrates, identified below, selectivity of the compounds of the present invention with respect to the coagulation factor serine proteases and with respect to the fibrinolytic system serine proteases are evaluated as well as their substantial lack of interference with serine proteases of the fibrinolytic system. Thrombin inhibitors preferably should spare fibrinolysis induced by urokinase, tissue plasminogen activator (t-PA) and streptokinase. This would be important to the therapeutic use of such agents as an adjunct to streptokinase, t-PA or urokinase thrombolytic therapy and to the use of such agents as an endogenous fibrinolysis-sparing (with respect to t-PA and urokinase) antithrombotic agent. In addition to the lack of interference with the amidase activity of the fibrinolytic proteases, such fibrinolytic system sparing can be studied by the use of human plasma clots and their lysis by the respective fibrinolytic plasminogen activators.
(§2) Human factors X, Xa, IXa, XIa, and XIIa are purchased from Enzyme Research Laboratories, South Bend, Ind.; human urokinase from Leo Pharmaceuticals, Denmark; and recombinant activated Protein C (aPC) is prepared at Eli Lilly and Co. substantially according to U.S. Patent No. 4,981,952. Chromogenic substrates: N-Benzoyl-Ile-Glu-Gly-Arg-p-nitroanilide (for factor Xa); N-Cbz-D-Arg-Gly-Arg-p-nitroanilide (for factor IXa assay as the factor Xa substrate); Pyroglutamyl-Pro-Arg-p-nitroanilide (for Factor XIa and for aPC); H-D-Pro-Phe-Arg-p-nitroanilide (for factor XIIa); and Pyroglutamyl-Gly-Arg-p-nitroanilide (for urokinase); are purchased from KabiVitrum, Stockholm, Sweden, or from Midwest Biotech, Fishers, Ind. Bovine trypsin is purchased from Worthington Biochemicals, Freehold, N.J., and human plasma kallikrein from Kabi Vitrum, Stockholm, Sweden. Chromogenic substrate H-D-Pro-Phe-Arg-p-nitroanilide for plasma kallikrein is purchased from Kabi Vitrum, Stockholm, Sweden. N-Benzoyl-Phe-Val-Arg-p-nitroanilide, the substrate for human thrombin and for trypsin, is synthesized according to procedures described above for the compounds of the present invention, using known methods of peptide coupling from commercially available reactants or purchased from Midwest Biotech, Fishers, Ind.

[2] = system: Human plasma; assay: Human plasma anticoagulation, activated partial thromboplastin time (APTT); conditions: concentration required to double the APTT, linear extrapolation
Description: (§3) Dog plasma and rat plasma is obtained from conscious mixed-breed hounds (either sex, Hazelton-LRE, Kalamazoo, Mich., U.S.A.) or from anesthetized male Sprague-Dawley rats (Harlan Sprague-Dawley, Inc., Indianapolis, Ind., U.S.A.) by venipuncture into 3.8 percent citrate. Fibrinogen is prepared from in-date ACD human blood as the fraction I-2 according to previous procedures and specifications. […] Human fibrinogen is also purchased as 98 percent pure/plasmin free from American Diagnostica, Greenwich, Conn. Coagulation reagents ACTIN, Thromboplastin, and Human plasma are from Baxter Healthcare Corp., Dade Division, Miami, Fla. Bovine thrombin from Parke-Davis ([…], Mich.) is used for coagulation assays in plasma.
(§4) Coagulation assay procedures are as previously described. […] A CoAScreener coagulation instrument (American LABor, Inc.) is used for all coagulation assay measurements. The prothrombin time (PT) is measured by adding 0.05 mL saline and 0.05 mL Thromboplastin-C reagent to 0.05 mL test plasma. The activated partial thromboplastin time (APTT) is measured by incubation of 0.05 mL test plasma with 0.05 mL Actin reagent for 120 seconds followed by 0.05 mL CaCl2 (0.02M). The thrombin time (TT) is measured by adding 0.05 mL saline and 0.05 mL thrombin (10 NIH units/mL) to 0.05 mL test plasma. The compounds of Formula I are added to human or animal plasma over a wide range of concentrations to determine prolongation effects on the APTT, PT, and TT assays. Linear extrapolations are performed to estimate the concentrations required to double the clotting time for each assay.

[3] = system: Human plasma; assay: Human plasma anticoagulation, prothrombin time (PT); conditions: concentration required to double the PT, linear extrapolation
Description: as §3, §4

[4] = biological target: Human Thrombin (Homo sapiens, UniProt P00734); assay: Inhibition of amidase activity of thrombin (Kass)
[5] = system: Human plasma; assay: Human plasma anticoagulation, thrombin time (TT); conditions: concentration required to double the thrombin time, linear extrapolation
Description: as §3, §4

[6] = biological target: T2, Bovine trypsin (Bos taurus, UniProt P00760); assay: Kass with trypsin, chromogenic substrate; conditions: substrate N-Benzoyl-Phe-Val-Arg-p-nitroanilide
T2 construct: Bovine trypsin is purchased; purchased Worthington Biochemicals, Freehold, N.J
T2 sequence (P00760 24-246): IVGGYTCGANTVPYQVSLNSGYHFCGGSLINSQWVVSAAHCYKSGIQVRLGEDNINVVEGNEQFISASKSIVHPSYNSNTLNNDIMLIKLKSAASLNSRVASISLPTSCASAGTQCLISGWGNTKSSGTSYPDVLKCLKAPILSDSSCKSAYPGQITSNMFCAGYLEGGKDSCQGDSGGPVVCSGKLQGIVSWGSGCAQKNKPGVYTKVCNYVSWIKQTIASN
Description: as §1, §2

[7] = mean over a range of concentrations, […]

T1 sequence (P00742 235-488 limits assumed): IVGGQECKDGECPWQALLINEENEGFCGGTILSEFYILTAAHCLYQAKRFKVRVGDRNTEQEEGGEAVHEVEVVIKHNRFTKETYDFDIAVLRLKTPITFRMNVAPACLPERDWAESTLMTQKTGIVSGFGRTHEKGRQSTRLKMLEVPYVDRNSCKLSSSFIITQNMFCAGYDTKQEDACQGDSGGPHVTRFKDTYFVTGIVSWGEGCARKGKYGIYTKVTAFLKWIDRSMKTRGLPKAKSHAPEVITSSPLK
T1 sequence (P00742 41-179 partner limits assumed): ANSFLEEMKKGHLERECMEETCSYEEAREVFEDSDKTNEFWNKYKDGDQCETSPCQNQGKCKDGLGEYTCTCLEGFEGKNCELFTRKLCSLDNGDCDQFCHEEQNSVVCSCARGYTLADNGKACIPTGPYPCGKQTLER

| Molecule | Kass Xa [1] | Kass Human Thrombin [4, 7] | Kass Trypsin [6] | Human Plasma Anticoagulation 2× Clotting time APTT [2] | Human Plasma Anticoagulation 2× Clotting time PT [3] | Human Plasma Anticoagulation 2× Clotting time TT [5] | Kass Human Thrombin [4] |
| --- | --- | --- | --- | --- | --- | --- | --- |
| Nc1ccc(CNC(=O)[C@@H]2CCCN2C(=O)[C@@H](CC2CCCCC2)NCC(=O)O)c(F)c1 [Example 64, HO2 CCH2 -D-Cha-Pro-4-NHCH2 -3-F-C6 H3 NH2.HCl] | 0.01 × 10^6 (L/mole) | 15 × 10^6 (L/mole) | – | 900 ng/mL | 650 ng/mL | 23 ng/mL | – |
| NCc1ccc(CNC(=O)[C@@H]2CCCN2C(=O)[C@@H](CC2CCCCC2)NCC(=O)O)cc1 [Example 78, HO2 CCH2 -D-Cha-pro-4-NHCH2 C6 H4 CH2 NH2.HCl] | – | – | 8.6 × 10^6 (L/mole) | 430 ng/mL | 760 ng/mL | 46 ng/mL | 11 |
| NCC1CCC(CNC(=O)[C@@H]2CCCN2C(=O)[C@@H](CC2CCCCC2)NCC(=O)O)CC1 (stereo partly drawn) [Example 79, HO2 CCH2 -D-Cha-Pro-4-NHCH2 C6 H10 CH2 NH2.HCl] | – | 2.0 × 10^6 (L/mole) | 0.24 × 10^6 (L/mole) | 1,700 ng/mL | 2,400 ng/mL | 140 ng/mL | – |
| CCS(=O)(=O)N[C@H](CC1CCCCC1)C(=O)N1CCC[C@H]1C(=O)NCc1ccnc(N)c1 [Example 83, EtSO2 -D-Cha-Pro-4-NHCH2 -2-aminopyridine.HCl] | – | 2.4 × 10^6 (L/mole) | 0.03 × 10^6 (L/mole) | 1,000 ng/mL | 1,300 ng/mL | 91 ng/mL | – |
| CCS(=O)(=O)N[C@H](CC1CCCCC1)C(=O)N1CCC[C@H]1C(=O)NCc1ccc(N)nc1 [Example 84, EtSO2 -D-Cha-Pro-5-NHCH2 -2-aminopyridine.HCl] | – | 2.9 × 10^6 (L/mole) | 0.07 × 10^6 (L/mole) | 1,500 ng/mL | 1,900 ng/mL | 110 ng/mL | – |
| N=C(N)c1ccc(CNC(=O)[C@@H]2CCCN2C(=O)[C@@H](CC2CCCCC2)NCCCC(=O)O)cc1 [Example 85, HOOCCH2 CH2 CH2 -D-Cha-pro-p-NHCH2 C6 H4 C(NH)NH2.HCl] | – | 265 × 10^6 (L/mole) | 30.8 × 10^6 (L/mole) | 100 ng/mL | 197 ng/mL | 4.9 ng/mL | – |
| N=C(N)c1ccc(CNC(=O)[C@@H]2CCCN2C(=O)[C@H](NCC(=O)O)C2CCCCC2)cc1 [Example 86, HOOCCH2 -D-Chg-Pro-p-NHCH2 C6 H4 C(NH)NH2.HCl] | 0.63 × 10^6 (L/mole) | – | – | 81 ng/mL | 180 ng/mL | 4 ng/mL | 200 |
| N=C(N)c1ccc(CNC(=O)[C@@H]2CCCN2C(=O)[C@@H](CCC2CCCCC2)NCC(=O)O)cc1 [Example 88, HOOCCH2 -D-hCha-Pro-p-NHCH2 C6 H4 C(NH)NH2.HCl] | 3.9 × 10^6 (L/mole) | 410 × 10^6 (L/mole) | – | 100 ng/mL | 200 ng/mL | 4 ng/mL | – |
| HOOCCH2 -D-hPhe-Pro-p-NHCH2 C6 H4 C(NH)NH2.HCl [Example 87] | 2.5 × 10^6 (L/mole) | 30 × 10^6 (L/mole) | – | 260 ng/mL | 310 ng/mL | 9 ng/mL | – |

The next lines start with results.

| Kass Xa [1] | Kass Human Thrombin [4, 7] | Kass Trypsin [6] | Molecule | Human Plasma Anticoagulation 2× Clotting time APTT [2] | Human Plasma Anticoagulation 2× Clotting time PT [3] | Human Plasma Anticoagulation 2× Clotting time TT [5] | Kass Human Thrombin [4] |
| --- | --- | --- | --- | --- | --- | --- | --- |
| – | 1,700 × 10^6 (L/mole) | 90 × 10^6 (L/mole) | CCS(=O)(=O)N[C@H](CC1CCCCC1)C(=O)N1CCC[C@H]1C(=O)NCc1ccc(C(=N)N)cc1.Cl [Example 80, EtSO2 -D-Cha-Pro-4-NHCH2 C6 H4 C(NH)NH2.HCl] | 40 ng/mL | 130 ng/mL | 4 ng/mL | – |
| – | 5.3 × 10^6 (L/mole) | 2.1 × 10^6 (L/mole) | CCS(=O)(=O)N[C@H](CC1CCCCC1)C(=O)N1CCC[C@H]1C(=O)NCc1ccc(CN)cc1 [Example 81, EtSO2 -D-Cha-Pro-4-NHCH2 C6 H4 CH2 NH2.HCl] | 1,500 ng/mL | 2,700 ng/mL | 110 ng/mL | – |
| 0.071 × 10^6 (L/mole) | 0.14 × 10^6 (L/mole) | – | N=C(N)c1ccc(CNC(=O)CN(CCc2ccccc2)C(=O)CNCC(=O)O)cc1 [Example 89, HOOCCH2 -Gly-N-C6 H5 CH2 CH2 Gly-p-NHCH2 C6 H4 C(NH)NH2.HCl] | 51,000 ng/mL | 37,000 ng/mL | 570 ng/mL | – |
| 0.002 × 10^6 (L/mole) | 0.61 × 10^6 (L/mole) | – | CCC(CC)C(=O)N[C@@H](CCC(=O)O)C(=O)N1CCC[C@H]1C(=O)NCc1ccc(C(=N)N)cc1 [Example 90, (C2 H5)2 CHCO-Glu-Pro-p-NHCH2 C6 H4 C(NH)NH2.HCl] | 14,500 ng/mL | 14,600 ng/mL | 330 ng/mL | – |
| 0.007 × 10^6 (L/mole) | 3.6 × 10^6 (L/mole) | – | CCC(CC)C(=O)N[C@@H](CCS(C)(=O)=O)C(=O)N1CCC[C@H]1C(=O)NCc1ccc(C(=N)N)cc1 [Example 91, (C2 H5)2 CHCO-Met(O2)-pro-p-NHCH2 C6 H4 C(NH)NH2.HCl] | 3,000 ng/mL | 3,500 ng/mL | 63 ng/mL | – |
| – | 130 × 10^6 (L/mole) | 7.7 × 10^6 (L/mole) | CS(=O)(=O)CC(=O)N[C@H](CC1CCCCC1)C(=O)N1CCC[C@H]1C(=O)NCc1ccc(C(=N)N)cc1 [Example 92, MeSO2 CH2 CO-D-Cha-Pro-p-NHCH2 C6 H4 C(NH)NH2.HCl] | 210 ng/mL | 340 ng/mL | 8.9 ng/mL | – |
